Patent US20110020448A1, “PHARMACEUTICAL COMPOSITION FOR THE TREATMENT AND PREVENTION OF GLAUCOMA” (MAZENCE, INC., priority 2007, published 2011)

How the values were obtained:
axons of the optic nerve = assay: Axonal viability (Bodian staining) in TTT laser optic nerve injury (glaucoma) model; format: in vivo, C57BL/6 mice; details: TTT laser model mice, rodent chow containing 50 mg/kg; day 14 after laser irradiation; FIG. 2
Experimental: (§1) Group 3: Experimental group (n=7) fed with a rodent chow containing 50 mg/kg of a pharmaceutical composition including compound 1 of experimental example 1 as an active ingredient, as a glaucoma model.
(§2) 8-week-old C57BL/6 mice were anesthetized with an intraperitoneal injection of a mixture of ketamine (100 mg/kg) and xylazine (5 mg/kg), and a mydriatic agent was applied to dilate the pupils of the eyes. Thereafter, an application of transpupillary thermotherapy (TTT), 200 spot size, 50-mW power, and 30-sec duration, was performed over the optic disc of an eye. The aiming beam of the laser was focused on the centre of the optic disc, a viscoelastic material was instilled, a cover glass was placed, and laser beams were irradiated while confirming the optic disc through the dilated pupils by naked eyes. The thus-established optic nerve injury model will be hereinafter referred to as a TTT laser model. […]
The retinal cross-section and the optic nerve cross-section were treated with a silver solution for 48 hours, and color development was carried out using a reducing agent, followed by toning and fixation. […] In order to evaluate the axonal viability, the stained axons were counted with a light microscope (×1000), in 20 regions at intervals of 10 in the four quadrants of each retina, from the center of the optic nerve tissue section slide. […]

retinal ganglion cells = assay: Viability of retinal ganglion cells (RGCs) in TTT laser optic nerve injury (glaucoma) model; format: in vivo, C57BL/6 mice; details: TTT laser model mice, rodent chow containing 50 mg/kg, fed 2 weeks; RGCs labeled day 13, counted 24 h later; FIG. 1
Experimental: as §1, §2
Twenty-four hours after labeling, the animals were euthanized and the eyes were enucleated and fixed for 2 hours with neutral formalin. […] Under a fluorescence microscope (×400), the fluorescently labeled retinal ganglion cells were counted in 12 regions in the four quadrants of each retina approximately 0.5 mm, 1 mm and 1.5 mm from the edge of the optic disc. […]

SMILES: CC1(C)CCC2=C(O1)c1ccccc1C(=O)C2=O [Compound 1, β-lapachone]
- axonal density relative to the TTT control group (Group 2) (axons of the optic nerve): ≥ 1.5 fold
- density of retinal ganglion cells relative to the TTT control group (Group 2) (retinal ganglion cells): ≥ 1.7 fold
